From patent EP3892265A1, “COMPOSITION FOR SUPPRESSING BLOOD PRESSURE ELEVATION AND METHOD FOR SUPPRESSING BLOOD PRESSURE ELEVATION” (Suntory Holdings Limited, priority 2018, dated 2020)

Columns and labels:
[1] = target: T1, angiotensin-converting enzyme (ACE) (Homo sapiens, UniProt P12821); test: ACE inhibitory activity measured with ACE Kit-WST (Dojindo Laboratories); format: biochemical; conditions: n = 4
T1 construct: purchased Dojindo Laboratories
Method: The angiotensin-converting enzyme (ACE) inhibitory effect of xanthohumol was evaluated by the following procedure.
Specifically, the ACE inhibitory activity was measured for the case where xanthohumol (produced by Gifu Shellac Manufacturing Co., Ltd.) was added as a test substance (n = 4 per level), using an ACE Kit-WST (Dojindo Laboratories) according to the instructions accompanying the kit.
A level with addition of distilled water instead of xanthohumol was set as a control group.
A level with no addition of xanthohumol which was measured in an ACE (enzyme)-free reaction system was set as an enzyme-free group.
The ACE inhibitory activity (%) of the test substance was calculated using the following formula 1. Significant difference was tested between the groups (control group vs. test substance-added group) by Student's t-test (significant level: p < 0.05). ACE inhibitory activity(%); = 100 × ((absorbanceat450nmofcontrolgroup)−; (absorbance at 450 nm in test substance−added; group))/((absorbanceat450nmofcontrolgroup)−; (absorbanceat450nmofenzyme-freegroup)) [formula]

[2] = test system: human umbilical vein endothelial cells (HUVECs, Lonza); test: Promotion of nitric oxide (NO) production from vascular endothelial cells, DAF-2 fluorescence; format: cell-based; conditions: 24 hours, relative to control group; for Relative amount of NO released (%) Average: n = 5
Method: The effect of xanthohumol (produced by Gifu Shellac Manufacturing Co., Ltd.) in promoting nitric oxide (NO) production from vascular endothelial cells was evaluated by the following procedure.
Specifically, human umbilical vein endothelial cells (HUVECs, Lonza) were treated with xanthohumol for 24 hours, and the amount of nitric oxide (NO) production was measured (n = 5).
HUVECs in a medium (EGM-2, Lonza) were seeded onto a 96-well plate at 10000 cells/0.1 mL/well, and cultured in a CO2 incubator. On the following day, the medium of a xanthohumol-added group was replaced by a medium to which xanthohumol was added; the control group was transferred to a control medium; and the positive control group was transferred to a medium containing positive control (Lovastatin, 10 µM) . Then, these groups were cultured in a CO2 incubator for additional 24 hours.
The medium to which xanthohumol was added was prepared by dissolving xanthohumol in dimethyl sulfoxide (DMSO) and adding the solution to a medium such that the final concentration of xanthohumol was 1 µg/mL, 3 µg/mL, or 10 µg/mL. The control medium was prepared by adding DMSO to a medium to the same concentration as that in the xanthohumol-added group. The medium containing positive control was prepared by adding a solution of lovastatin in DMSO to a medium such that the final concentration of lovastatin (produced by FUJIFILM Wako Pure Chemical Corporation) was 10 µM.
After culturing for 24 hours, diaminofluorescein-2 diacetate (DAF-2, Goryo Chemical, Inc.) was added to each medium to a final concentration of 10 µM, followed by incubation in a CO2 incubator for two hours. Subsequently, the culture supernatant was transferred to a 96-well plate (black plate), and the fluorescence intensity (ex. 495 nm, em. 515 nm) was measured. The fluorescence intensity relative to the fluorescence intensity of the control group was determined as the relative amount of NO released. Significant difference was tested between the groups (control group vs. xanthohumol-added group) by Student's t-test (significant level: p < 0.05). […]

[3] = Xanthohumol concentration 3 µg/mL
[4] = Xanthohumol concentration 10 µg/mL

T1 sequence (P12821 30-1306, species assumed): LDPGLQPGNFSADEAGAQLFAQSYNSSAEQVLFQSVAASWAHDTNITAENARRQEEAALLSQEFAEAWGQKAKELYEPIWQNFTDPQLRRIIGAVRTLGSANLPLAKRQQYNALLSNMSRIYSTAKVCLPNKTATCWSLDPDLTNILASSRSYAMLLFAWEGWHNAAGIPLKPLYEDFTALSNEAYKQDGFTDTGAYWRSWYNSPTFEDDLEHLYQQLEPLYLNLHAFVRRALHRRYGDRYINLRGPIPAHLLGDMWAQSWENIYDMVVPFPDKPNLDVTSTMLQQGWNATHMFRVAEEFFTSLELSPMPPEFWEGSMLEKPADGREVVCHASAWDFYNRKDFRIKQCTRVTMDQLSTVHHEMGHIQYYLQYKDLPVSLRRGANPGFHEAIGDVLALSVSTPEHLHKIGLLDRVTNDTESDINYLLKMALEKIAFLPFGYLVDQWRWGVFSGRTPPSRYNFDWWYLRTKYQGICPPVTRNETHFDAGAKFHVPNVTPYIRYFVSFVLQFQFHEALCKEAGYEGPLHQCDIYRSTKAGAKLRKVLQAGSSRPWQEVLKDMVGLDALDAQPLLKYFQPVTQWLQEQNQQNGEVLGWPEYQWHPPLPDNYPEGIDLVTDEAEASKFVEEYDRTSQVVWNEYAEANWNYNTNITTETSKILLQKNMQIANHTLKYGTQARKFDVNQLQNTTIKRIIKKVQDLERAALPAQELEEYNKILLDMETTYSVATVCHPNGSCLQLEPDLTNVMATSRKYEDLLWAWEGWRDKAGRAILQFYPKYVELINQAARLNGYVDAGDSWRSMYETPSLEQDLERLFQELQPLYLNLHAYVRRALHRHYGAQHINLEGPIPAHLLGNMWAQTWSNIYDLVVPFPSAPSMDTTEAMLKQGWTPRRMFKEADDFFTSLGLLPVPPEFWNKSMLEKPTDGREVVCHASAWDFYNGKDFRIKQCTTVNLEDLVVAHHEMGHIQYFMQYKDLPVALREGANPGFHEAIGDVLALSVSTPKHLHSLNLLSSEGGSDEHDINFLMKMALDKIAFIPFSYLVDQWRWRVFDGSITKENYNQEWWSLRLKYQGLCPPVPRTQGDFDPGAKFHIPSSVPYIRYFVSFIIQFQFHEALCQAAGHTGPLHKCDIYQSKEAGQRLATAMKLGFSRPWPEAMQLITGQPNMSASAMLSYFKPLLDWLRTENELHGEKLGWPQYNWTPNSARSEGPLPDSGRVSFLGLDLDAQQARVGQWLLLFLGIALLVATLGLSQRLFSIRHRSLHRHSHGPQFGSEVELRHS

SMILES	inhibition at 3 µg/mL [1, 3] [%]	inhibition at 10 µg/mL [1, 4] [%]	inhibition at 30 µg/mL ([1]; Xanthohumol concentration 30 µg/mL) [%]	Relative amount of NO released (%) Average ([2]; Xanthohumol concentration 1 µg/mL) [%]	Relative amount of NO released (%) Average [2, 3] [%]	Relative amount of NO released (%) Average [2, 4] [%]	relative amount of NO released ([2]; Lovastatin 10 µM, average ± standard error) [%]
COc1cc(O)c(CC=C(C)C)c(O)c1C(=O)/C=C/c1ccc(O)cc1 [Xanthohumol]	3.33	15.8	19.5	108.3	124.8	147.5	–
CC[C@H](C)C(=O)O[C@H]1C[C@@H](C)C=C2C=C[C@H](C)[C@H](CC[C@@H]3C[C@@H](O)CC(=O)O3)[C@H]21 [positive control, Lovastatin, reference compound]	–	–	–	–	–	–	122.8 ± 2.7
